Experimental data: patent publication US20260042762A1 (Kymera Therapeutics, Inc., priority 2018, published 2026)
Structures can show the parent of a compound that is named as a salt.

Target: T1, MerTK (Homo sapiens, UniProt Q12866)
T1 construct: endogenous in cells; host or cells: Jurkat cells
T1 sequence (Q12866 21-999): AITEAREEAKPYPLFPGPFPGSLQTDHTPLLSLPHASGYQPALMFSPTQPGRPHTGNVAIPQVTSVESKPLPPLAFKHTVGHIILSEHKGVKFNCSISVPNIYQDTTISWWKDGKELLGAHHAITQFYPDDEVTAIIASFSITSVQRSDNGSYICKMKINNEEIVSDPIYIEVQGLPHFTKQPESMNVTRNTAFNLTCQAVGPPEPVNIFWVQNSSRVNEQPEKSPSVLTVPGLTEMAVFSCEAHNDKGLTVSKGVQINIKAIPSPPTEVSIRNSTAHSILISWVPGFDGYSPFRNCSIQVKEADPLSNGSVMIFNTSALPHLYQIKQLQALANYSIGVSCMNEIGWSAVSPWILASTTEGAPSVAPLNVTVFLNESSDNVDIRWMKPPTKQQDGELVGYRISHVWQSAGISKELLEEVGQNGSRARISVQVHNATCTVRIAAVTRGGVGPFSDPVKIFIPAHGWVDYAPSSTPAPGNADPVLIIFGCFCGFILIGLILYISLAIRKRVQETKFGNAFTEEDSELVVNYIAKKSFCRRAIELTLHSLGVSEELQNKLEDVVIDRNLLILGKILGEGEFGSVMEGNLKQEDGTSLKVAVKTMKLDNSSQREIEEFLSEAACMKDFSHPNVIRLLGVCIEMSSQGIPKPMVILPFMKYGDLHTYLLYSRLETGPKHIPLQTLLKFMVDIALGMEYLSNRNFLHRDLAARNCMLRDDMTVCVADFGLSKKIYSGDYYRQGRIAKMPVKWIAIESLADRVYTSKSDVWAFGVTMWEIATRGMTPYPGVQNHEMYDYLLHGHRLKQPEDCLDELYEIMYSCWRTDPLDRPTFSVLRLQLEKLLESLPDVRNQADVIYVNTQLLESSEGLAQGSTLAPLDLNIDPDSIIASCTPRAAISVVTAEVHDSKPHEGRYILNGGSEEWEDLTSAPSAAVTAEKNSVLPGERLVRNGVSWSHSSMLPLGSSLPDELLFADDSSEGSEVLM
Experiment: MerTk degradation in Jurkat cells (Western blot)
Format: cell-based
Details: Jurkat, 4 h, 0.001-1 μM, 4 hour-incubation at 37° C., read-out: Jurkat Max % MerTK Degradation
Procedure, shortened: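 Jurkat cells treated 4 h at 37 °C with compound at 0.001-1 μM final. RIPA lysates quantified by BCA, then MerTK probed by Western blot against actin loading control with IR-dye secondaries and Odyssey imaging.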

| Structure (SMILES) | Dmax [%] |
| --- | --- |
| CCC[C@H](C)Nc1ncc2c(-c3ccc(CN4CCN(C5CC(OCCc6ccc7c(c6)n(C)c(=O)n7C6CCC(=O)NC6=O)C5)CC4)cc3)cn([C@H]3CC[C@](C)(O)CC3)c2n1 (stereo partly drawn) [I-188, 3-[3-methyl-2-oxo-5-[2-(3-[4-[(4-[2-[(2S)-pentan-2-ylamino]-7-[trans-4-hydroxy-4-methylcyclohexyl]pyrrolo[2,3-d]pyrimidin-5-yl]phenyl)methyl]piperazin-1-yl]cyclobutoxy)ethyl]-1,3-benzodiazol-1-yl]piperidine-2,6-dione; formic acid] | > 50 |
| Cc1ncsc1-c1ccc(CNC(=O)[C@@H]2C[C@@H](O)CN2C(=O)[C@@H](NC(=O)C2(F)CC2)C(C)(C)C)c(OCCOCCOCCN2CCN(Cc3ccc(-c4cn([C@H]5CC[C@H](O)CC5)c5nc(NCCC(F)(F)F)ncc45)cc3)CC2)c1 [I-214, (2S,4R)-1-[(2S)-2-[(1-fluorocyclopropyl)formamido]-3,3-dimethylbutanoyl]-4-hydroxy-N-[[4-(4-methyl-1,3-thiazol-5-yl)-2-[2-[2-(2-[4-[(4-[7-[trans-4-hydroxycyclohexyl]-2-[(3,3,3-trifluoropropyl)amino]pyrrolo[2,3-d]pyrimidin-5-yl]phenyl)methyl]piperazin-1-yl]ethoxy)ethoxy]ethoxy]phenyl]methyl]pyrrolidine-2-carboxamide] | > 50 |
| Cn1c(=O)n([C@H]2CCC(=O)NC2=O)c2ccc(CCCOCCOCCN3CCN(Cc4ccc(-c5cn([C@H]6CC[C@H](O)CC6)c6nc(NCCCF)ncc56)cc4)CC3)cc21 [I-88, 3-(5-[3-[2-(2-[4-[(4-[2-[(3-fluoropropyl)amino]-7-[trans-4-hydroxycyclohexyl]-7H-pyrrolo[2,3-d]pyrimidin-5yl]phenyl)methyl]piperazin-1-yl]ethoxy)ethoxy]propyl]-3-methyl-2-oxo-2,3-dihydro-1H-1,3-benzodiazol-1-yl)piperidine-2,6-dione; formic acid] | > 50 |
| Cn1c(=O)n([C@H]2CCC(=O)NC2=O)c2ccc(CCCOCCCN3CCN(Cc4cn([C@H]5CC[C@H](O)CC5)c5nc(NCCC(F)(F)F)ncc45)CC3)cc21 [I-140, 3-[3-methyl-2-oxo-5-(3-[3-[4-([7-[trans-4-hydroxycyclohexy1]-2-[(3,3,3-trifluoropropyl)amino]pyrrolo[2,3-d]pyrimidin-5-yl]methyl)piperazin-1-yl]propoxy]propyl)-1,3-benzodiazol-1-yl]piperidine-2,6-dione; formic acid] | 20 to 50 |
| CCC[C@H](C)Nc1ncc2c(-c3ccc(CN4CCN(C5CC(OCCc6ccc7c(c6)n(C)c(=O)n7C6CCC(=O)NC6=O)C5)CC4)cc3)cn([C@H]3CC[C@@](C)(O)CC3)c2n1 (stereo partly drawn) [I-187, 3-[3-methyl-2-oxo-5-[2-(3-[4-[(4-[2-[(2S)-pentan-2-ylamino]-7-[cis-4-hydroxy-4-methylcyclohexyl]pyrrolo[2,3-d]pyrimidin-5-yl]phenyl)methyl]piperazin-1-yl]cyclobutoxy)ethyl]-1,3-benzodiazol-1-yl]piperidine-2,6-dione; formic acid] | > 50 |
| Cn1c(=O)n([C@H]2CCC(=O)NC2=O)c2ccc(CCCOCCOC3CCN(C[C@H]4CC[C@H](c5cn([C@H]6CC[C@H](O)CC6)c6nc(NCCC(F)(F)F)ncc65)CC4)CC3)cc21 [I-163] | > 50 |
| CCC[C@@H](C)Nc1ncc2c(n1)n([C@H]1CC[C@H](O)CC1)cc2[C@H]1CC[C@H](CN2CCN(CCCO[C@H]3CCN(Cc4ccc5c(c4)n(C)c(=O)n5C4CCC(=O)NC4=O)C3)CC2)CC1 (stereo partly drawn) [I-221, trans-3-(3-methyl-2-oxo-5-[[(3R)-3-[3-(4-[[(1r,4r)-4-[2-[(2S)-pentan-2-ylamino]-7-[4-hydroxycyclohexyl]pyrrolo[2,3-d]pyrimidin-5-yl]cyclohexyl]methyl]piperazin-1-y1)propoxy]pyrrolidin-1-yl]methyl]-1,3-benzodiazol-1-yl)piperidine-2,6-dione] | 20 to 50 |
| C[C@@H](CC(F)(F)F)Nc1ncc2c(-c3ccc(CN4CCN(CCCO[C@H]5CCN(Cc6ccc7c(c6)n(C)c(=O)n7C6CCC(=O)NC6=O)C5)CC4)cc3)cn([C@H]3CC[C@H](O)CC3)c2n1 (stereo partly drawn) [I-199, 3-(3-methyl-2-oxo-5-[[(3S)-3-(3-[4-[(4-[7-[trans-4-hydroxycyclohexy1]-2-[[(2S)-4,4,4-trifluorobutan-2-yl]amino]pyrrolo[2,3-d]pyrimidin-5-yl]phenyl)methyl]piperazin-1-yl]propoxy)pyrrolidin-1-yl]methyl]-1,3-benzodiazol-1-yl)piperidine-2,6-dione] | 20 to 50 |
| Cc1ncsc1-c1ccc(CNC(=O)[C@@H]2C[C@@H](O)CN2C(=O)[C@@H](NCCNCCCCCN2CCN(Cc3ccc(-c4cn([C@H]5CC[C@H](O)CC5)c5nc(NCCC(F)(F)F)ncc45)cc3)CC2)C(C)(C)C)cc1 [I-68, (2S,4R)-1-[(2S)-3,3-dimethyl-2-([2-[(5-[4-[(4-[7-[trans-4-hydroxycyclohexyl]-2-[(3,3,3-trifluoropropyl)amino]-7H-pyrrolo[2,3-d]pyrimidin-5yl]phenyl)methyl]piperazin-1-yl]pentyl)amino]ethyl]amino)butanoyl]-4-hydroxy-N-[[4-(4-methyl-1,3-thiazol-5-yl)phenyl]methyl]pyrrolidine-2-carboxamide dihydrochloride] | < 20 |
| Cn1c(=O)n(C2CCC(=O)NC2=O)c2ccc(CCCN3CCCC(N4CCN(Cc5ccc(-c6cn([C@H]7CC[C@H](O)CC7)c7nc(NCCC(F)(F)F)ncc67)cc5)CC4)C3)cc21 (stereo partly drawn) [I-118, 3-[3-methyl-2-oxo-5-[3-(3-[4-[(4-[7-[trans-4-hydroxycyclohexy1]-2-[(3,3,3-trifluoropropyl)amino]-7H-pyrrolo[2,3-d]pyrimidin-5-yl]phenyl)methyl]piperazin-1-y1]piperidin-1-y1)propyl]-2,3-dihydro-1H-1,3-benzodiazol-1-yl]piperidine-2,6-dione; formic acid] | 20 to 50 |
| Cn1c(=O)n([C@H]2CCC(=O)NC2=O)c2ccc(CCCOCCOC3CCN(C[C@H]4CC[C@@H](c5cn([C@H]6CC[C@H](O)CC6)c6nc(NCCC(F)(F)F)ncc65)CC4)CC3)cc21 [I-171, 3-[3-methyl-2-oxo-5-(3-[2-[(1-[[cis-4-[7-[trans-4-hydroxycyclohexyl]-2-[(3,3,3-trifluoropropyl)amino]pyrrolo[2,3-d]pyrimidin-5-yl]cyclohexyl]methyl]piperidin-4-yl)oxy]ethoxy]propyl)-1,3-benzodiazol-1-y1]piperidine-2,6-dione] | > 50 |
| Cn1c(=O)n([C@H]2CCC(=O)NC2=O)c2ccc(CCCOCCCCN3CCN(Cc4ccc(-c5cn([C@H]6CC[C@H](O)CC6)c6nc(NCCC(F)(F)F)ncc56)cc4)CC3)cc21 [I-79, 3-[3-methyl-2-oxo-5-[3-(4-[4-[(4-[7-[trans-4-hydroxycyclohexyl]-2-[(3,3,3-trifluoropropyl)amino]-7H-pyrrolo[2,3-d]pyrimidin-5-yl]phenyl)methyl]piperazin-1-yl]butoxy)propyl]-2,3-dihydro-1H-1,3-benzodiazol-1-yl]piperidine-2,6-dione; formic acid] | > 50 |
| CCCCNc1ncc2c(-c3ccc(CN4CCN(CCOCCOCCOCCOCCCc5ccc6c(c5)n(C)c(=O)n6[C@H]5CCC(=O)NC5=O)CC4)nn3)cn([C@H]3CC[C@H](O)CC3)c2n1 [I-76, 3-(5-[1-[4-([6-[2-(butylamino)-7-[trans-4-hydroxycyclohexyl]-7H-pyrrolo[2,3-d]pyrimidin-5-y1]pyridazin-3-y1]methyl)piperazin-1-y1]-3,6,9,12-tetraoxapentadecan-15-y1]-3-methyl-2-oxo-2,3-dihydro-1H-1,3-benzodiazol-1-y1)piperidine-2,6-dione; formic acid] | > 50 |
